Source: US10471028B2, “Small molecule efflux pump inhibitors” (UNIVERSITY OF ROCHESTER, priority 2014, dated 2019)

Assays:
[1] = test system: A. baumannii strain 98-37-09; assay: Cellular accumulation of minocycline (HPLC, triple-quadrupole MS); format: cell-based, Acinetobacter baumannii; conditions: human serum with 0.5 μg mL^−1 minocycline plus test compound (0.5×MEC, 1×MEC), 48 hours
Experimental: High pressure liquid chromatography and triple-quadrupole mass spectrometry were used to measure the A. baumannii intracellular levels of minocycline during growth in human serum in the absence and presence of each putative efflux pump inhibitor. […] Cultures were incubated for 48 hours with shaking, at which point an aliquot was removed, serially diluted, and plated to determine the number of viable CFU per mixture. The remainder of the cells were pelleted by centrifugation at 900×g at 4° C., washed twice in PBS, mechanically lysed with a FastPrep cell disrupter (MP Biomedicals, Santa Ana, Calif.) for 20 seconds at 5 m s^−1 and the cellular debris was pelleted via centrifugation at 900×g and 4° C. The amount of minocycline present within the supernatant of ruptured cells was measured. Briefly, doxycycline (0.5 μg mL^−1) was first added to each supernatant to serve as an internal control to account for sample-to-sample preparation variability. The supernatant was then combined with acetonitrile (ACN) at a 1:10 ratio and centrifuged at 16,000×g, at 4° C., to collect minocycline and doxycycline. […] residual liquid was evaporated in a speed vacuum for 2 hours at 8,000×g. To quantify the amount of antibiotics retained, sample materials were suspended in 50% acetonitrile, filtered through a 0.2 μm low protein binding hydrophilic membrane (Millipore, Billerica, Mass.) then separated on Shimadzu high performance liquid chromatography instrument (Fisher Scientific) using a BetaBasic C18 reverse phase column (Thermo Scientific). Separation was carried out with two mobile phase solutions consisting of solution (A) water with 0.1% formic acid and solution (B) 100% ACN. The gradient profile of the chromatography runs was as follows: from 0 to 0.1 min 8% solution B, ramp step wise (37% to 60% solution B) from 0.1 to 6.5 min then holding for one minute before ramping down from 60% to 10% from 7.5 to 8 min. This was followed a hold at 10% solution B for one minute. […] The column was equilibrated in 8% solution B at 40° C. and the flow rate was set to 0.2 mL min^−1. Mass spectrometry analysis of fractions was carried out using a Thermo TSQ Quantum Ultra triple quadrupole mass spectrometer (Fisher Scientific). Data were analyzed using Xcalibur software (Thermo Scientific); the following parameters were used to detect minocycline and the internal control doxycycline: 458.208 m/z→282.971 m/z (collision energy=43, tube lens=119) for minocycline and 445.144 m/z→266.900 m/z (collision energy=39, tube lens=127) for doxycycline. Analysis of the raw data was conducted by using the area under the curve calculations with the Genesis algorithm to determine the concentration in each sample. The difference between the peak intensity and the y intercept of pre-established minocycline and doxycycline standard curves was divided by the slope of the standard curve to quantify the amount of minocycline within each sample. The total concentration of minocycline within each cell was calculated by normalizing to the number of cells within each corresponding culture.

[2] = test system: A. baumannii strain 98-37-09; assay: MEC determination: potentiation of minocycline toward serum grown A. baumannii; format: cell-based, Acinetobacter baumannii; conditions: for Log-reduction Colony Forming Units (ml^−1): 1×MEC of compound plus minocycline in serum, versus minocycline alone, plating; for MEC: lowest concentration inhibiting growth in 100% human serum with 0.5 μg ml^−1 minocycline, 48 hr
Experimental: The TimTec ActiProbe-25K diversity-set and Natural Product compound libraries (29,900 compounds total; TimTec, Newark, Del.) were initially screened for putative efflux pump inhibitors by identifying compounds that potentiated the antimicrobial property of a sub-inhibitory concentration of minocycline toward A. baumannii grown in human serum. To do so, A. baumannii strain 98-37-09 was grown for 16 hours in LB medium at 37° C. on a rotary shaker at 225 rpm. Approximately 1×10^5 CFU were then transferred to individual wells of a 96-well round-bottom plate (Corning Costar, Tewksbury, Mass.) containing 100 μL of human serum supplemented with of minocycline (0.5 μg mL^−1; 0.5× minimum inhibitory concentration in serum) and individual members of the Timtec ActiProbe or Natural product library (50 μM). Plates were then incubated at 37° C. for 48 hours. Growth was measured as a function of turbidity. Putative efflux pump inhibitors were identified as compounds that inhibited A. baumannii growth in human serum containing minocycline and were subsequently retested in triplicate, as indicated above. Untreated A. baumannii grown in serum supplemented with minocycline+/−PAβN served as positive and negative controls, respectively. […] Repeat testing in which well constituents were serial diluted and plated on LB agar plates validated that 85 compounds did indeed limit A. baumannii growth in serum supplemented with minocycline, reducing the number of viable colony forming units between 2-6 log cfu in comparison to minocycline alone treated cells.
The MEC was defined as the lowest concentration of test compound required to inhibit the growth of A. baumannii in serum in the presence of 0.5 μg ml^−1 minocycline. Plating confirmed that addition of 1×MEC of each compound elicited ≥1.9-log reduction in A. baumannii cells grown in serum supplemented with minocycline alone (see Table 1).

Row | Structure (SMILES) | Minocylcine Per Cell (femtomoles cell^−1) [1] [femtomoles cell^−1] | Log-reduction Colony Forming Units (ml^−1) [2] [log] | MEC [2] [µg/mL]
1 | N#CC1=C(N)n2c(s/c(=C\c3ccccc3Cl)c2=O)=C(C#N)C1c1ccccc1Cl (stereo not drawn) [ST006953] | 4.31E−08 | 2.71 | 4
2 | Cc1ccc(C2N(Cc3ccccc3)CCN2Cc2ccccc2)s1 [ST008277] | 4.41E−08 | 5.19 | 4
3 | Cc1cc(O)c(C(C)C)cc1C1(c2cc(C(C)C)c(O)cc2C)OC(=O)c2ccccc21 [ST009495] | 4.7E−08 | 2.23 | 2
4 | Oc1ccccc1/C=N/c1nccs1 [ST009531] | 5.88E−09 | 2.77 | 2
5 | NS(=O)(=O)c1ccc(/N=C/c2ccccc2O)cc1 [ST009655] | 2.61E−07 | 6.67 | 2
6 | Cc1ccc(/C=N/c2ccc(S(N)(=O)=O)cc2)cc1 [ST009696] | 8.2E−09 | 5.67 | 4
7 | CCOC(=O)C1=C(N)OC2=C(C(=O)CCC2)C1c1sccc1C (stereo not drawn) [ST009847] | 2.54E−07 | 4.97 | 2
8 | N#CC1=C(N)OC2=C(C(=O)CCC2)C1c1c(Cl)cccc1Cl (stereo not drawn) [ST009850] | 7.25E−08 | 2.47 | 2
9 | O=C(N/N=C/c1cccs1)c1ccncc1 [ST010260] | 3.27E−08 | 2.66 | 16
10 | NS(=O)(=O)c1ccc(/N=C/c2cc(Br)ccc2O)cc1 [ST010344] | 2.98E−08 | 5.29 | 32
11 | O=S(=O)(Nc1nccs1)c1ccc(/N=C/c2ccc3c(c2)OCO3)cc1 [ST012901] | 4.16E−09 | 2.66 | 2
12 | N=C(N)NS(=O)(=O)c1ccc(/N=C/c2c(O)ccc3ccccc23)cc1 [ST012929] | 2.74E−08 | 4.64 | 32
13 | O=S(=O)(Nc1nccs1)c1ccc(/N=C/c2c(O)ccc3ccccc23)cc1 [ST012934] | 2.28E−08 | 4.42 | 32
14 | O=[N+]([O-])c1cc(/C=N/c2ccc(S(=O)(=O)NC3NC=CS3)cc2)c2c(c1)COCO2 (stereo not drawn) [ST012941] | 8.12E−09 | 6.23 | 64
15 | O=S(=O)(Nc1nccs1)c1ccc(/N=C/c2cc(Cl)cc3c2OCOC3)cc1 [ST012955] | 1.04E−08 | 4.42 | 32
16 | C/C(=N\c1ccc(S(=O)(=O)Nc2nccs2)cc1)c1ccc(O)cc1O [ST012963] | 3.23E−08 | 3.90 | 32
17 | NNC(=O)CSCc1ccc(Cl)cc1 [ST020992] | 1.53E−07 | 7.43 | 2
18 | C/C(Cn1nnc([N+](=O)[O-])n1)=N\NC(=O)CC#N [ST025773] | 1.04E−07 | 8.00 | 32
19 | CCCCCCCN1C(=O)/C(=c2\sc3n(c2=O)C(c2ccc(OC(=O)c4ccco4)cc2)C(C(=O)OC)=C(C)N=3)c2ccccc21 (stereo not drawn) [ST029434] | 1.73E−08 | 3.02 | 64
20 | N#Cc1c(/N=C/c2ccco2)sc2c1CCCC2 [ST033063] | 5.84E−08 | 1.93 | 2
21 | COc1ccc(C=O)cc1Cn1nnc2ccccc21 [ST033235] | 6.652E−08 | 2.21 | 32
22 | Cc1cccc(N(CC(=O)NC23CC4CC(CC(C4)C2)C3)S(=O)(=O)c2ccccc2)c1 [ST034012] | 1.55E−07 | 2.00 | 2
23 | COc1ccccc1C1N(Cc2ccccc2)CCN1Cc1ccccc1 [ST036365] | 3.59E−08 | 3.50 | 4
24 | CCOC(=O)C1=C(CN2CCCCC2)NC(=O)NC1c1ccc2c(c1)OCO2 (stereo not drawn) [ST058478] | 1.52E−07 | 6.33 | 64
25 | CN1CCN(C(=O)CCSc2ccccc2)CC1 [ST058672] | 3.2E−07 | 5.97 | 4
26 | CC(C)CCOC(=O)C(NS(=O)(=O)c1ccc2c(c1)CCN2S(C)(=O)=O)c1ccccc1 (stereo not drawn) [ST058811] | 2.48E−07 | 6.17 | 4
27 | CCOc1cc(C(=O)N2CC(=O)Nc3ccccc32)cc(OCC)c1OCC [ST059010] | 3.78E−08 | 6.11 | 32
